This passage reports IC50 results from US20070287699A1, “ANTIVIRAL AGENTS” (ViroBay, Inc., priority 2006, published 2007).

Some results are limits rather than exact numbers.

This test concerns HCV replicon RNA replication in human Huh7 hepatoma cells. In words: HCV replicon assay (activity levels from either or both of HCV replicon assay 1, Huh7/Clone A RT-qPCR, and assay 2, Huh7 ET luc-ubi-neo/ET). Conditions: Hepatitis C virus, Huh-7, either or both HCV replicon assays: Huh7/Clone A, 48 hours, 72 hours, Luc activity or RT-PCR, read-out: inhibit HCV replication at IC50 levels or estimated IC50 levels. The class given is cell-based, Hepatitis C virus (HCV). A digest of the protocol:
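Huh7/Clone A subgenomic replicon cells treated 48 h at 37° C. with 7 serial dilutions in triplicate (0.5% DMSO final). Replicon RNA measured by TaqMan RT-qPCR on the neo gene, normalized to RiboGreen total RNA; untreated cells set as 100% for IC50.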
Regarding `CN1CCN(c2cc3c(cc2F)c(=O)c(-c2noc(C(CCC(N)=O)c4ccccc4)n2)cn3Cc2ccc(Cl)cc2)CC1` (centres unmarked) [Compound 67, 4-{3-[1-(4-chloro-benzyl)-6-fluoro-7-(4-methyl-piperazin-1-yl)-4-oxo-1,4-dihydro-quinolin-3-yl]-[1,2,4]oxadiazol-5-yl}-4-phenyl-butyramide], the half-inhibitory concentration (IC50) (commonly the concentration needed to halve the response being measured) is under 10 µM.

On to `COc1ccc2c(=O)c(-c3noc(Cc4ccccc4)n3)cn(Cc3ccc(C(F)(F)F)cc3)c2c1` [Compound 68, 3-(5-benzyl-oxadiazol-3-yl)-7-methoxy-1-(4-trifluoromethyl-benzyl)-1H-quinolin-4-one], for which the half-maximal inhibitory concentration (IC50) is over 10 µM.

With `NC(=O)CNc1cc2c(cc1F)c(=O)c(-c1noc(Cc3ccccc3)n1)cn2Cc1ccc(C(F)(F)F)cc1F` [Compound 69, 2-[3-(5-benzyl-[1,2,4]oxadiazol-3-yl)-6-fluoro-1-(2-fluoro-4-trifluoromethyl-benzyl)-4-oxo-1,4-dihydro-quinolin-7-ylamino]-acetamide], the IC50 is under 10 µM.

With `O=c1c(-c2noc(Cc3ccccc3)n2)cn(Cc2ccc(C(F)(F)F)cc2)c2cc(N3CCNCC3)c(F)cc12` [Compound 70, 3-(5-benzyl-[1,2,4]oxadiazol-3-yl)-6-fluoro-7-piperazin-1-yl-1-(4-trifluoromethyl-benzyl)-1H-quinolin-4-one], the IC50 is under 0.5 µM.

With `O=c1c(-c2noc(Cc3ccccc3)n2)cn(Cc2ccc(C(F)(F)F)cc2)c2cc(N3CCCNCC3)c(F)cc12` [Compound 71, 3-(5-benzyl-[1,2,4]oxadiazol-3-yl)-7-[1,4]diazepam-1-yl-6-fluoro-1-(4-trifluoromethyl-benzyl)-1H-quinolin-4-one], the IC50 was under 0.5 µM.

As to `O=c1c(-c2noc(Cc3ccccc3)n2)cn(Cc2ccc(C(F)(F)F)cc2)c2cc(NCCN3CCOCC3)c(F)cc12` [Compound 72, 3-(5-benzyl-[1,2,4]oxadiazol-3-yl)-6-fluoro-7-(2-morpholin-4-yl-ethylamino)-1-(4-trifluoromethyl-benzyl)-1H-quinolin-4-one], the half-inhibitory concentration (IC50) was under 2 µM.

In the case of `O=c1c(-c2noc(Cc3ccccc3)n2)cn(Cc2ccc(C(F)(F)F)cc2)c2cc(NCCOCCO)c(F)cc12` [Compound 73, 3-(5-benzyl-[1,2,4]oxadiazol-3-yl)-6-fluoro-7-[2-(2-hydroxy-ethoxy)-ethylamino]-1-(4-trifluoromethyl-benzyl)-1H-quinolin-4-one], the IC50 was under 10 µM.

On to `CN(C)c1cc2c(cc1F)c(=O)c(-c1noc(Cc3ccccc3)n1)cn2Cc1ccc(C(F)(F)F)cc1` [Compound 74, 3-(5-benzyl-[1,2,4]oxadiazol-3-yl)-7-dimethylamino-6-fluoro-1-(4-trifluoromethyl-benzyl)-1H-quinolin-4-one], for which the 50% inhibitory concentration (IC50) was under 2 µM.

As to `NCCNc1cc2c(cc1F)c(=O)c(-c1noc(Cc3ccccc3)n1)cn2Cc1ccc(C(F)(F)F)cc1` [Compound 75, 7-(2-amino-ethylamino)-3-(5-benzyl-[1,2,4]oxadiazol-3-yl)-6-fluoro-1-(4-trifluoromethyl-benzyl)-1H-quinolin-4-one], the IC50 was over 10 µM.

Turning to `O=C(O)Cc1ccc2c(c1)c(=O)c(-c1noc(Cc3ccccc3)n1)cn2Cc1ccc(C(F)(F)F)cc1F` [Compound 76, [3-(5-benzyl-[1,2,4]oxadiazol-3-yl)-1-(2-fluoro-4-trifluoromethyl-benzyl)-4-oxo-1,4-dihydro-quinolin-6-yl]-acetic acid], the IC50 is over 10 µM.

For the compound `CN1CCN(c2cc3c(cc2F)c(=O)c(-c2noc(C(C)(C)c4ccccc4)n2)cn3Cc2ccc(C(F)(F)F)cc2F)CC1` [Compound 77, 6-fluoro-1-(2-fluoro-4-trifluoromethyl-benzyl)-3-[5-(1-methyl-1-phenyl-ethyl)-[1,2,4]oxadiazol-3-yl]-7-(4-methyl-piperazin-1-yl)-1H-quinolin-4-one], the concentration for half-maximal inhibition (IC50) was under 0.5 µM.

As for `CN1CCN(c2cc3c(cc2F)c(=O)c(-c2noc(C4(c5ccccc5)CC4)n2)cn3Cc2ccc(C(F)(F)F)cc2F)CC1` [Compound 78, 6-fluoro-1-(2-fluoro-4-trifluoromethyl-benzyl)-7-(4-methyl-piperazin-1-yl)-3-[5-(1-phenyl-cyclopropyl)-[1,2,4]oxadiazol-3-yl]-1H-quinolin-4-one], the IC50 is under 2 µM.

In the case of `CN1CCN(c2cc3c(cc2F)c(=O)c(-c2noc(Cc4ccccc4)n2)cn3CCc2ccccc2)CC1` [Compound 79, 3-(5-benzyl-[1,2,4]oxadiazol-3-yl)-6-fluoro-7-(4-methyl-piperazin-1-yl)-1-phenethyl-1H-quinolin-4-one], the half-inhibitory concentration (IC50) is over 10 µM.

`CN1CCN(c2cc3c(cc2F)c(=O)c(-c2noc(C(CCCC(N)=O)c4ccccc4)n2)cn3Cc2ccc(Cl)cc2)CC1` (centres unmarked) [Compound 80, 5-{3-[1-(4-chloro-benzyl)-6-fluoro-7-(4-methyl-piperazin-1-yl)-4-oxo-1,4-dihydro-quinolin-3-yl]-[1,2,4]oxadiazol-5-yl}-5-phenyl-pentanamide]: the IC50 is under 2 µM.

Consider `CN1CCN(c2cc3c(cc2F)c(=O)c(-c2noc(C(CCCC(=O)O)c4ccccc4)n2)cn3Cc2ccc(Cl)cc2)CC1` (centres unmarked) [Compound 81, 5-{3-[1-(4-chloro-benzyl)-6-fluoro-7-(4-methyl-piperazin-1-yl)-4-oxo-1,4-dihydro-quinolin-3-yl]-[1,2,4]oxadiazol-5-yl}-5-phenyl-pentanoic acid], for which the 50% inhibitory concentration (IC50) is under 10 µM.

For the compound `CN1CCN(c2cc3c(cc2F)c(=O)c(-c2noc(C(CCCCN)c4ccccc4)n2)cn3Cc2ccc(Cl)cc2)CC1` (centres unmarked) [Compound 82, 3-[5-(5-amino-1-phenyl-pentyl)-[1,2,4]oxadiazol-3-yl]-1-(4-chloro-benzyl)-6-fluoro-7-(4-methyl-piperazin-1-yl)-1H-quinolin-4-one], the IC50 was under 10 µM.

Regarding `O=c1c(-c2noc(Cc3ccccc3)n2)cn(Cc2ccc(C(F)(F)F)cc2)c2cc(N(CCO)CCO)c(F)cc12` [Compound 83, 3-(5-benzyl-[1,2,4]oxadiazol-3-yl)-7-[bis-(2-hydroxy-ethyl)-amino]-6-fluoro-1-(4-trifluoromethyl-benzyl)-1H-quinolin-4-one], the half-maximal inhibitory concentration (IC50) is under 10 µM.

In the case of `O=c1c(-c2noc(Cc3ccccc3)n2)cn(Cc2ccc(C(F)(F)F)cc2)c2cc(-n3ccnc3)c(F)cc12` [Compound 84, 3-(5-benzyl-[1,2,4]oxadiazol-3-yl)-6-fluoro-7-imidazol-1-yl-1-(4-trifluoromethyl-benzyl)-1H-quinolin-4-one], the concentration for half-maximal inhibition (IC50) is under 2 µM.

Turning to `CC(=O)NCCCCC(c1ccccc1)c1nc(-c2cn(Cc3ccc(Cl)cc3)c3cc(N4CCN(C)CC4)c(F)cc3c2=O)no1` (centres unmarked) [Compound 85, N-(5-{3-[1-(4-chloro-benzyl)-6-fluoro-7-(4-methyl-piperazin-1-yl)-4-oxo-1,4-dihydro-quinolin-3-yl]-[1,2,4]oxadiazol-5-yl}-5-phenyl-pentyl)-acetamide], the IC50 was under 2 µM.

Turning to `CN1CCN(c2cc3c(cc2F)c(=O)c(-c2noc(C(CCCCNC(=O)OC(C)(C)C)c4ccccc4)n2)cn3Cc2ccc(Cl)cc2)CC1` (centres unmarked) [Compound 86, tert-butyl (5-{3-[1-(4-chloro-benzyl)-6-fluoro-7-(4-methyl-piperazin-1-yl)-4-oxo-1,4-dihydro-quinolin-3-yl]-[1,2,4]oxadiazol-5-yl}-5-phenyl-pentyl)-carbamate], the IC50 was under 10 µM.
